Key:
[1] = system: CHO-S cells expressing a fusion protein P1; assay: Fed-batch culture of P1 cells with valeric acid (viable cell density, viability, titer); type: cell-based, Chinese hamster
Procedure: Assays were performed with 2 CHO cell lines: • CHO-S cells expressing a fusion protein P1, herein “Cells P1” or “P1 cells”. “P1” is an IgG1 fusion protein, comprising one part directed against a membrane protein (IgG part) linked to a second part targeting a soluble immune protein. Its isoelectric point (pi) is about 6.3-7.0. • CHO-K1 cells expressing a monoclonal antibody P2, herein “Cells P2” or “P2 cells”. “P2” is a humanised monoclonal antibody directed against a receptor found on the cell membrane. Its isoelectric point (pi) is about 9.20-9.40. Cell expansion was performed in tubes in a medium suitable for cell expansion. Assays in fed-batch started after at least one week expansion. Cells expressing both P1 and P2 were inoculated at 0.2×10^6 viable cells per millilitre (mL). All assays were performed in fed-batch culture. The host cells were cultured in fed-batch system either in microplates (“Deep well plate”, “DWP”) or in Spin Tubes®, and incubated at 36.5° C., 90% relative humidity, 5% CO2 and 320 rpm shaking during 14 days. A stock solution of valeric acid was prepared in a standard production proprietary medium. The valeric acid concentration of this stock solution was 195 mM. The stock solution was used to supplement media to test different valeric acid concentrations from the beginning of the culture (day 0; tested concentrations: 1, 1.5 and 2 mM). The solution was also used like a feed to supplement the valeric acid to the culture at different time points during the fed-batch (day 3, 4, 5 or 7). When the solution was used like a feed, the target concentration in the culture was always 1.5 mM. Viable cell density and viability were measured with the Guava easyCyte® flow cytometer or with the ViCell. Antibody titres were measured with the fortéBIO Octet® or with Biacore C®.

[2] = system: CHO-K1 cells expressing a monoclonal antibody P2; assay: Fed-batch culture of P2 cells with valeric acid (viable cell density, viability, titer); type: cell-based, Chinese hamster
Procedure: Assays were performed with 2 CHO cell lines: • CHO-S cells expressing a fusion protein P1, herein “Cells P1” or “P1 cells”. “P1” is an IgG1 fusion protein, comprising one part directed against a membrane protein (IgG part) linked to a second part targeting a soluble immune protein. Its isoelectric point (pi) is about 6.3-7.0. • CHO-K1 cells expressing a monoclonal antibody P2, herein “Cells P2” or “P2 cells”. “P2” is a humanised monoclonal antibody directed against a receptor found on the cell membrane. Its isoelectric point (pi) is about 9.20-9.40. Cell expansion was performed in tubes in a medium suitable for cell expansion. Assays in fed-batch started after at least one week expansion. Cells expressing both P1 and P2 were inoculated at 0.2×10^6 viable cells per millilitre (mL). All assays were performed in fed-batch culture. The host cells were cultured in fed-batch system either in microplates (“Deep well plate”, “DWP”) or in Spin Tubes®, and incubated at 36.5° C., 90% relative humidity, 5% CO2 and 320 rpm shaking during 14 days. A stock solution of valeric acid was prepared in a standard production proprietary medium. The valeric acid concentration of this stock solution was 195 mM. The stock solution was used to supplement media to test different valeric acid concentrations from the beginning of the culture (day 0; tested concentrations: 1, 1.5 and 2 mM). The solution was also used like a feed to supplement the valeric acid to the culture at different time points during the fed-batch (day 3, 4, 5 or 7). When the solution was used like a feed, the target concentration in the culture was always 1.5 mM. Viable cell density and viability were measured with the Guava easyCyte® flow cytometer or with the ViCell. Antibody titres were measured with the fortéBIO Octet® or with Biacore C®. In this experiment the addition of 1.5 mM valeric acid to the culture on day 03, 04 or 05 was tested. For this experiment a CHO-k1 cell line (P2 cells) was used to confirm that valeric acid has the same effect than on CHO-S cells (P1 cells as discussed in a.).

[3] = valeric acid in media on day 0 (1, 1.5 and 2 mM)
[4] = 1.5 mM valeric acid added day 03, 04 or 05, until day 12

## CCCCC(=O)O [valeric acid]
[1]; 1.5 mM valeric acid added as feed (day 3, 5 or 7), as of day 12
  viability of the culture compared to control: prolonged compared to the control runs
[1]; 1.5 mM valeric acid added as feed (day 3, 5 or 7), until day 11
  cell viability compared to control: no impact on cell viability until day 11
[1]; 1.5 mM valeric acid added as feed at day 3, titer at day 12
  increase of titer compared to control: about 20%
[1]; 1.5 mM valeric acid added as feed at day 5, titer at day 12
  increase of titer compared to control: about 30%
[1]; 1.5 mM valeric acid added as feed at day 7, titer at day 12
  increase of titer compared to control: about 20%
[1]; 1.5 mM valeric acid added at day 3
  cell growth rate compared to control: slowed down
[1]; [3]
  final titer: not improved
  maximum viable cell density: The higher the concentration, the lower the maximum viable cell density
  viability: maintained longer than for control experiment
[1]; valeric acid in the media on day 0
  impact on cell density and titer: very negative impact on both cell density and titer
[2]; 1.5 mM valeric acid added day 03, 04 or 05, starting day 13
  viability compared to control culture: prolonged compared to the control culture
[2]; [4]
  cell viability compared to control: no impact on cell viability
  titer compared to control: comparable to control
[2]; 1.5 mM valeric acid added earlier during the culture (day 03, 04 or 05)
  maximum viable cell density compared to control: decreased
[2]; 1.5 mM valeric acid at day 3, titer at day 17
  titer increase compared to control: about 25%
[2]; 1.5 mM valeric acid at day 5, titer at day 17
  titer increase compared to control: about 35%
[2]; 1.5 mM valeric acid at day 7 (so in the source), titer at day 17
  titer increase compared to control: about 25%
[2]; optimal valeric acid condition, after day 17 (data not shown), control 0.9 g/L
  titer obtained: ~5 g/L

Source: patent US20190390170A1, “METHODS FOR MODULATING PRODUCTION PROFILES OF RECOMBINANT PROTEINS” (ARES TRADING S.A., priority 2016, published 2019)
